Experimental data: patent publication US20120071506A1, “METHODS FOR TREATING CNS DISORDERS WITH BICYCLO-SUBSTITUTED 2-IMIDAZOLINE AND 2-IMIDAZOLES” (priority 2006, published 2012)
Counter-ions that a name gives are not always drawn.

tested on: not given; assay: not given; details: not given

| Structure (SMILES) | melting point |
| --- | --- |
| Cc1cc(C)c2c(c1)C(c1ncc[nH]1)CCC2 (racemic) [Example 10, rac-2-(5,7-Dimethyl-1,2,3,4-tetrahydro-naphthalen-1-yl)-1H-imidazole] | 161 to 163 °C |
| Brc1ccc2c(c1)C(C1=NCCN1)CCC2 (racemic) | 156 to 158 °C |

molecular target: T1, mouse TAAR1 (Mus musculus, UniProt Q923Y8); assay: Radioligand binding with [3H]-rac-2-(1,2,3,4-tetrahydro-1-naphthyl)-2-imidazoline on membranes of HEK293 cells stably expressing TAAR1; details: mouse TAAR1; competition with [3H]-rac-2-(1,2,3,4-tetrahydro-1-naphthyl)-2-imidazoline at 60 nM, 4° C., 30 min
T1 construct: expressed in transfected cells; host or cells: HEK293 cells (ATCC # CRL-1573), stably transfected with pIRESneo2 expression plasmid; membrane preparation
T1 sequence (Q923Y8 whole entry): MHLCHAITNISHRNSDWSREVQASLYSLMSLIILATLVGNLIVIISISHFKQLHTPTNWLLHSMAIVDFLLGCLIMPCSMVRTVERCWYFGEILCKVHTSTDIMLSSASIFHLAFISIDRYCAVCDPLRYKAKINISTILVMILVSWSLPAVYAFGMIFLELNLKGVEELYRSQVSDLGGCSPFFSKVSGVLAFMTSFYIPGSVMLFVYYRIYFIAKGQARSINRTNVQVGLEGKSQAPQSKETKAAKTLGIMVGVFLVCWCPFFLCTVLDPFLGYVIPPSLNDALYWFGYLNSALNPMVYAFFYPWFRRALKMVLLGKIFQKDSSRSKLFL
Method: For the construction of expression plasmids the coding sequences of human, rat and mouse TAAR 1 were amplified from genomic DNA essentially as described by Lindemann et al.. The Expand High Fidelity PCR System (Roche Diagnostics) was used with 1.5 mM Mg^2+ and purified PCR products were cloned into pCR2.1-TOPO cloning vector (Invitrogen) following the instructions of the manufacturer. PCR products were subcloned into the pIRESneo2 vector (BD Clontech, Palo Alto, Calif.), and expression vectors were sequence verified before introduction in cell lines.
HEK293 cells (ATCC # CRL-1573) were cultured essentially as described Lindemann et al. (2005). For the generation of stably transfected cell lines HEK293 cells were transfected with the pIRESneo2 expression plasmids containing the TAAR coding sequences (described above) with Lipofectamine 2000 (Invitrogen) according to the instructions of the manufacturer, and 24 hrs post transfection the culture medium was supplemented with 1 mg/ml G418 (Sigma, Buchs, Switzerland). After a culture period of about 10 d clones were isolated, expanded and tested for responsiveness to trace amines (all compounds purchased from Sigma) with the cAMP Biotrak Enzyme immunoassay (EIA) System (Amersham) following the non-acetylation EIA procedure provided by the manufacturer.
Cells at confluence were rinsed with ice-cold phosphate buffered saline without Ca^2+ and Mg^2+ containing 10 mM EDTA and pelleted by centrifugation at 1000 rpm for 5 min at 4° C. The pellet was then washed twice with ice-cold phosphate buffered saline and cell pellet was frozen immediately by immersion in liquid nitrogen and stored until use at −80° C. Cell pellet was then suspended in 20 ml HEPES-NaOH (20 mM), pH 7.4 containing 10 mM EDTA, and homogenized with a Polytron (PT 3000, Kinematica) at 10,000 rpm for 10 s. The homogenate was centrifuged at 48,000×g for 30 min at 4° C. and the pellet resuspended in 20 ml HEPES-NaOH (20 mM), pH 7.4 containing 0.1 mM EDTA (buffer A), and homogenized with a Polytron at 10,000 rpm for 10 s. The homogenate was then centrifuged at 48,000×g for 30 min at 4° C. and the pellet resuspended in 20 ml buffer A, and homogenized with a Polytron at 10,000 rpm for 10 s. Protein concentration was determined by the method of Pierce (Rockford, Ill.). The homogenate was then centrifuged at 48,000×g for 10 min at 4° C., resuspended in HEPES-NaOH (20 mM), pH 7.0 including MgCl2 (10 mM) and […] homogenized with a Polytron at 10,000 rpm for 10 s.
Binding assay was performed at 4° C. in a final volume of 1 ml, and with an incubation time of 30 min. The radioligand [^3H]-rac-2-(1,2,3,4-tetrahydro-1-naphthyl)-2-imidazoline was used at a concentration equal to the calculated Kd value of 60 nM to give a bound at around 0.1% of the total added radioligand concentration, and a specific binding which represented approximately 70-80% of the total binding. Non-specific binding was defined as the amount of [^3H]-rac-2-(1,2,3,4-tetrahydro-1-naphthyl)-2-imidazoline bound in the presence of the appropriate unlabelled ligand (10 μM). Competing ligands were tested in a wide range of concentrations (10 pM-30 μM). […] Each experiment was performed in duplicate. All incubations were terminated by rapid filtration through UniFilter-96 plates (Packard Instrument Company) and glass filter GF/C, pre-soaked for at least 2 h in polyethylenimine 0.3%, and using a Filtermate 96 Cell Harvester (Packard Instrument Company). The tubes and filters were then washed 3 times with 1 ml aliquots of cold buffer B. Filters were not dried and soaked in Ultima gold (45 μl/well, Packard Instrument Company) and bound radioactivity was counted by a TopCount Microplate Scintillation Counter (Packard Instrument Company).

| Structure (SMILES) | Ki |
| --- | --- |
| c1ccc2c(c1)OCCC2c1cnc[nH]1 (racemic) [Example 69, rac-5-Chroman-4-yl-1H-imidazole hydrochloride or tautomer] | 0.025 µM |
| c1ccc2c(c1)NCCC2c1ncc[nH]1 (racemic) [Example 41, rac-4-(1H-Imidazol-2-yl)-1,2,3,4-tetrahydro-quinoline] | 0.061 µM |
| Clc1cccc2c1OCC=C2c1cnc[nH]1 [Example 63, 5-(8-Chloro-2H-chromen-4-yl)-1H-imidazole or tautomer] | 0.02 µM |
| c1ccc2c(c1)OCCC2C1=NCCN1 (racemic) [Example 11, rac-2-Chroman-4-yl-4,5-dihydro-1H-imidazole] | 0.017 µM |
| Fc1cccc2c1C(c1cnc[nH]1)CCO2 (racemic) [Example 67, rac-5-(5-Fluoro-chroman-4-yl)-1H-imidazole or tautomer] | 0.032 µM |
| Cc1cc(C)c2c(c1)C(C1=NCCN1)CCC2 (racemic) [Example 2, rac-2-(5,7-Dimethyl-1,2,3,4-tetrahydro-naphthalen-1-yl)-4,5-dihydro-1H-imidazole] | 0.011 µM |
| COc1cccc2c1CCCC2C1=NCCN1 (racemic) [Example 22, rac-2-(5-methoxy-1,2,3,4-tetrahydro-naphthalen-1-yl)-4,5-dihydro-1H-imidazole] | 0.025 µM |
| c1ccc2c(c1)OCCC2c1ncc[nH]1 (racemic) [Example 12, rac-2-Chroman-4-yl-1H-imidazole] | 0.054 µM |
| Fc1ccc2c(c1)OCCC2c1cnc[nH]1 (racemic) [Example 65, rac-5-(7-Fluoro-chroman-4-yl)-1H-imidazole or tautomer] | 0.004 µM |
| C1=C(c2cnc[nH]2)c2ccccc2CC1 [Example 55] | 0.011 µM |
| Cc1cccc2c1C(c1cnc[nH]1)CCO2 (racemic) [Example 66, rac-5-(5-Methyl-chroman-4-yl)-1H-imidazole or tautomer] | 0.037 µM |
| Clc1ccc2c(c1)CCCC2C1=NCCN1 (racemic) [Example 18, rac-2-(6-chloro-1,2,3,4-tetrahydro-naphthalen-1-yl)-4,5-dihydro-1H-imidazole] | 0.058 µM |
| Cc1cc(C)c2c(c1)C(c1ncc[nH]1)CCC2 (racemic) [Example 10, rac-2-(5,7-Dimethyl-1,2,3,4-tetrahydro-naphthalen-1-yl)-1H-imidazole] | 0.013 µM |
| Brc1cccc2c1CCCC2C1=NCCN1 (racemic) [Example 1, rac-2-(5-Bromo-1,2,3,4-tetrahydro-naphthalen-1-yl)-4,5-dihydro-1H-imidazole] | 0.009 µM |
| Clc1cc(Cl)c2c(c1)C(c1ncc[nH]1)CCO2 (racemic) [Example 36, rac-2-(6,8-Dichloro-chroman-4-yl)-1H-imidazole] | 0.053 µM |
| c1ccc2c(c1)CCCC2c1c[nH]cn1 (racemic) [Example 56, rac-4-(1,2,3,4-Tetrahydro-naphthalen-1-yl)-1H-imidazole] | 0.006 µM |
| Fc1cc(Cl)cc2c1CCCC2C1=NCCN1 (racemic) [Example 3, rac-2-(7-Chloro-5-fluoro-1,2,3,4-tetrahydro-naphthalen-1-yl)-4,5-dihydro-1H-imidazole] | 0.054 µM |
| Cc1ccc2c(c1)OCCC2c1cnc[nH]1 (racemic) [Example 60, rac-5-(7-Methyl-chroman-4-yl)-1H-imidazole or tautomer] | 0.008 µM |
| COc1ccc2c(c1)C(C1=NCCN1)CCC2 (racemic) [Example 20, rac-2-(7-Methoxy-1,2,3,4-tetrahydro-naphthalen-1-yl)-4,5-dihydro-1H-imidazole] | 0.051 µM |
| Clc1cccc2c1CCCC2C1=NCCN1 (racemic) [Example 19, rac-2-(5-chloro-1,2,3,4-tetrahydro-naphthalen-1-yl)-4,5-dihydro-1H-imidazole] | 0.013 µM |
| COc1ccc2c(c1)CCCC2C1=NCCN1 (racemic) [Example 21, rac-2-(6-methoxy-1,2,3,4-tetrahydro-naphthalen-1-yl)-4,5-dihydro-1H-imidazole] | 0.009 µM |
| Clc1ccc2c(c1)C(c1cnc[nH]1)=CCO2 [Example 64, 5-(6-Chloro-2H-chromen-4-yl)-1H-imidazole or tautomer] | 0.016 µM |
| Fc1ccc2c(c1)C(c1cnc[nH]1)CCO2 (racemic) [Example 62, rac-5-(6-Fluoro-chroman-4-yl)-1H-imidazole or tautomer] | 0.004 µM |

same assay, conditions: radioligand used at a concentration equal to its calculated Kd; species of TAAR1 not given

| Structure (SMILES) | Kd |
| --- | --- |
| c1ccc2c(c1)CCCC2C1=NCCN1 (racemic) [[^3H]-rac-2-(1,2,3,4-tetrahydro-1-naphthyl)-2-imidazoline, reference compound] | 60 nM |
